Experimental data published in the NIST ThermoML archive (doi:10.1021/je060271a).

Settings: 283.14 K, Liquid, Vibrating tube method

CCCCCCC(=O)OCC(COC(=O)CCCCCC)(COC(=O)CCCCCC)COC(=O)CCCCCC [pentaerythritol tetraheptanoate]
Settings	mass density [kg/m3]
23079 kPa	998.5
23110 kPa	998.5
23147 kPa	998.6
23178 kPa	998.6
23209 kPa	998.6
23246 kPa	998.5
23277 kPa	998.7
23308 kPa	998.6
23339 kPa	998.7
23377 kPa	998.7
23410 kPa	998.6
23442 kPa	998.7
23480 kPa	998.8
23512 kPa	998.7
23543 kPa	998.7
23576 kPa	998.8
23614 kPa	998.8
23646 kPa	998.8
23685 kPa	998.8
23717 kPa	998.8
23749 kPa	998.9
23788 kPa	998.8
23821 kPa	998.9
23854 kPa	999
23888 kPa	998.9
23927 kPa	998.9
23960 kPa	998.9
23999 kPa	998.9
24032 kPa	998.9
24066 kPa	999.1
24099 kPa	998.9
24140 kPa	999.1
24173 kPa	999.1
24213 kPa	999
24247 kPa	999
24281 kPa	999.1
24324 kPa	999.2
24358 kPa	999.1
24392 kPa	999.2
24426 kPa	999.3
24468 kPa	999.3
24502 kPa	999.3
24543 kPa	999.3
24578 kPa	999.3
24613 kPa	999.2
24655 kPa	999.4
24726 kPa	999.4
24769 kPa	999.4
24841 kPa	999.4
24878 kPa	999.5
24921 kPa	999.5
24958 kPa	999.4
24994 kPa	999.5
25038 kPa	999.6
25075 kPa	999.6
25112 kPa	999.6
25155 kPa	999.5
25192 kPa	999.6
25230 kPa	999.6
25277 kPa	999.6
25314 kPa	999.6
25352 kPa	999.6
25389 kPa	999.7
25427 kPa	999.8
25472 kPa	999.8
25511 kPa	999.8
25549 kPa	999.8
25595 kPa	999.7
25633 kPa	999.9
25672 kPa	999.8
25718 kPa	1000
25758 kPa	1000
25799 kPa	999.9
25839 kPa	999.8
25886 kPa	999.9
25918 kPa	1000.1
26265 kPa	1000.1
26414 kPa	1000.4
26496 kPa	1000.3
26525 kPa	1000.3
26556 kPa	1000.2
26581 kPa	1000.3
26612 kPa	1000.3
26638 kPa	1000.3
26665 kPa	1000.4
26696 kPa	1000.4
26722 kPa	1000.4
26776 kPa	1000.3
26950 kPa	1000.5
27004 kPa	1000.4
27030 kPa	1000.6
27063 kPa	1000.7
27090 kPa	1000.6
27291 kPa	1000.7
27380 kPa	1000.7
27414 kPa	1000.6
27442 kPa	1000.8
27476 kPa	1000.8
27506 kPa	1000.7
27536 kPa	1000.8
27566 kPa	1000.9
27704 kPa	1000.9
27724 kPa	1000.9
27744 kPa	1000.9
27768 kPa	1000.9
27787 kPa	1001
27808 kPa	1000.9
27832 kPa	1000.9
27851 kPa	1001
27872 kPa	1001
27980 kPa	1001
28001 kPa	1001
